Assay results taken from patent US20230092890A1, “1, 3, 4-Oxadiazole derivative compounds as histone deacetylase 6 inhibitor, and the pharmaceutical composition comprising the same” (Chong Kun Dang Pharmaceutical Corp., priority 2019, published 2023).
pIC50: −log10 of the molar value.

Tests used:
HDAC6 human recombinant = molecular target: T1, HDAC6 human recombinant (Homo sapiens, UniProt Q9UBN7); assay: HDAC enzyme activity inhibition (in vitro), HDAC6 assay; assay type: biochemical; details: samples at 0.1, 1, 10, 100 and 1000 nM; 37° C. 60 minutes; fluorescence Ex 390, Em 460; read-out: HDAC6 IC50
T1 construct: purchased Calbiochem 382180
T1 sequence (Q9UBN7 1-1215): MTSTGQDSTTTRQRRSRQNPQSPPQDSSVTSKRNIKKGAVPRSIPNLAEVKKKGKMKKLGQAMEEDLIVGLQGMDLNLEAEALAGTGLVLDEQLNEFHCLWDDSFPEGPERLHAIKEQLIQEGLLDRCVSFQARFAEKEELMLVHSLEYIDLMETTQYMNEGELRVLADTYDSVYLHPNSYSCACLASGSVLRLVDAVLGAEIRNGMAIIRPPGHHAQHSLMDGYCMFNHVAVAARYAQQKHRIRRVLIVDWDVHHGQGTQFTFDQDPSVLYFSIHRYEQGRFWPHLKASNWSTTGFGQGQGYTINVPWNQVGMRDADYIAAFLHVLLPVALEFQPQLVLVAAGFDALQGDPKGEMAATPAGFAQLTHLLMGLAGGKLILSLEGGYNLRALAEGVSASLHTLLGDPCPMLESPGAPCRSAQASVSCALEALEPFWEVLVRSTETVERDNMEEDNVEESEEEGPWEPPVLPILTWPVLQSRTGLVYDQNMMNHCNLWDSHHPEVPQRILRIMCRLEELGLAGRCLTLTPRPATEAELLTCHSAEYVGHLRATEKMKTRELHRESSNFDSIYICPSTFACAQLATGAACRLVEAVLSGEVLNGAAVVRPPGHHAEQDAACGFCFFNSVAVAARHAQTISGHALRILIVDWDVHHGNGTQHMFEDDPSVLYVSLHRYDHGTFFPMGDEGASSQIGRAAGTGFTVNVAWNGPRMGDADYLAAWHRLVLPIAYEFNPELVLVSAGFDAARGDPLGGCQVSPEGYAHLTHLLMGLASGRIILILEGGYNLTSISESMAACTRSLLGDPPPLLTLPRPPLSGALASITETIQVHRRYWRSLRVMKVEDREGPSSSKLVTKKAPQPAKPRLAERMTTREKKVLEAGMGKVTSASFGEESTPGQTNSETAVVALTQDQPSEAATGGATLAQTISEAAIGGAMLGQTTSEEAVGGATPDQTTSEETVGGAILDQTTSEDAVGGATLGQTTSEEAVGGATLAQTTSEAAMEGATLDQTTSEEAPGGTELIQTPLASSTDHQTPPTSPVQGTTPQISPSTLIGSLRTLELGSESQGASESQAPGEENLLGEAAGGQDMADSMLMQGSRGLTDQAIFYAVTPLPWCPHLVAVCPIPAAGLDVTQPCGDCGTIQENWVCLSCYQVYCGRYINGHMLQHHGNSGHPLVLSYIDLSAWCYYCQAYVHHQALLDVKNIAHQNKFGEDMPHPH
Protocol: A HDAC enzyme inhibitory capacity of a test material was measured by using HDAC1 Fluorimetric Drug Discovery Assay Kit (Enzolifesciences: BML-AK511) and HDAC6 human recombinant (Calbiochem: 382180). For a HDAC1 assay, samples were treated at a concentration of 100, 1000 and 10000 nM. […] After the above sample treatment, a reaction was continued at 37° C. for 60 minutes, then treated with a developer, and then subjected to a reaction at 37° C. for 30 minutes, after which fluorescence intensity (Ex 390, Em 460) was measured by using FlexStatin3 (Molecular device).

HDAC1 = molecular target: T2, HDAC1 (Homo sapiens, UniProt Q13547); assay: HDAC enzyme activity inhibition (in vitro), HDAC1 Fluorimetric Drug Discovery Assay Kit; assay type: biochemical; details: samples at 100, 1000 and 10000 nM; 37° C. 60 minutes; fluorescence Ex 390, Em 460; read-out: HDAC1 IC50
T2 construct: purchased Enzolifesciences BML-AK511
T2 sequence (Q13547 whole entry): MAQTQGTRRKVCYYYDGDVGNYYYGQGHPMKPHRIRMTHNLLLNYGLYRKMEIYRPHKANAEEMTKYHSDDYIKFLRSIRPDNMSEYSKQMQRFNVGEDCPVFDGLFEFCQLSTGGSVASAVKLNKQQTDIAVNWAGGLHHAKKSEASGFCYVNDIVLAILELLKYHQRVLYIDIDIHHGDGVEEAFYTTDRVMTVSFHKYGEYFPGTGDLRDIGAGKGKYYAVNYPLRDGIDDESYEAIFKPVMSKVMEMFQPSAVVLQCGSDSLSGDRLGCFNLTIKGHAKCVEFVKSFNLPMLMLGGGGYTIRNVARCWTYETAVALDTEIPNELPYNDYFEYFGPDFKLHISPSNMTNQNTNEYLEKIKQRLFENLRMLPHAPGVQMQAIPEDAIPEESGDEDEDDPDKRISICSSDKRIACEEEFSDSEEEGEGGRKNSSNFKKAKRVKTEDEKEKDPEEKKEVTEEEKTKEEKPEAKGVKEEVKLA
Protocol: <Experimental Example 1> Identification of HDAC Enzyme Activity Inhibition (In Vitro)
A selective HDAC6 inhibitor is important for selectivity of HDAC1 inhibition, which is a cause of side effects, and thus HDAC1/6 enzyme selectivity and cell selectivity (HDAC1: histone acetylation/HDAC6: tubulin acetylation) were identified.
A HDAC enzyme inhibitory capacity of a test material was measured by using HDAC1 Fluorimetric Drug Discovery Assay Kit (Enzolifesciences: BML-AK511) and HDAC6 human recombinant (Calbiochem: 382180). For a HDAC1 assay, samples were treated at a concentration of 100, 1000 and 10000 nM. For a HDAC6 assay, samples were treated at a concentration of 0.1, 1, 10, 100 and 1000 nM. After the above sample treatment, a reaction was continued at 37° C. for 60 minutes, then treated with a developer, and then subjected to a reaction at 37° C. for 30 minutes, after which fluorescence intensity (Ex 390, Em 460) was measured by using FlexStatin3 (Molecular device).

SMILES | pIC50 (HDAC6 human recombinant) | pIC50 (HDAC1)
O=c1oc2cc(-c3ccc(N4CCN(C5COC5)CC4)nc3)c(F)cc2n1Cc1ccc(-c2nnc(C(F)F)o2)cn1 [Compound 350, 3-((5-(5-(difluoromethyl)-1,3,4-oxadiazole-2-yl)pyridine-2-yl)methyl)-5-fluoro-6-(6-(4-(oxetan-3-yl)piperazine-1-yl)pyridine-3-yl)benzo[d]oxazole-2(3H)-one] | 7.48 | < 5.00
O=c1oc2cc(C3CCN(C4COC4)CC3)c(F)cc2n1Cc1ccc(-c2nnc(C(F)F)o2)cn1 [Compound 336, 3-((5-(5-(difluoromethyl)-1,3,4-oxadiazole-2-yl)pyridine-2-yl)methyl)-5-fluoro-6-(1-(oxetan-3-yl)piperidine-4-yl)benzo[d]oxazole-2(3H)-one] | 7.36 | < 5.00
Cn1c(=O)n(Cc2ccc(-c3nnc(C(F)F)o3)cn2)c2cc(F)c(-c3cnc(N4CCN(C(=O)OC(C)(C)C)CC4)nc3)cc21 [Compound 341, tert-butyl 4-(5-(1-((5-(5-(difluoromethyl)-1,3,4-oxadiazole-2-yl)pyridine-2-yl)methyl)-6-fluoro-3-methyl-2-oxo-2,3-dihydro-1H-benzo[d]imidazole-5-yl)pyrimidine-2-yl)piperazine-1-carboxylate] | 6.68 | < 5.00
CN1CCC(n2c(=O)n(Cc3ccc(-c4nnc(C(F)F)o4)cc3F)c3cc(F)ccc32)CC1 [Compound 69, 3-(4-(5-(difluoromethyl)-1,3,4-oxadiazole-2-yl)-2-fluorobenzyl)-5-fluoro-1-(1-methylpiperidine-4-yl)-1,3-dihydro-2H-benzo[d]imidazole-2-one] | 7.55 | < 5.00
CN1CCC(c2cc3oc(=O)n(Cc4ccc(-c5nnc(C(F)F)o5)cn4)c3cc2F)CC1 [Compound 334, 3-((5-(5-(difluoromethyl)-1,3,4-oxadiazole-2-yl)pyridine-2-yl)methyl)-5-fluoro-6-(1-methylpiperidine-4-yl)benzo[d]oxazole-2(3H)-one] | 7.19 | < 5.00
O=c1n(Cc2ccc(-c3nnc(C(F)F)o3)cn2)c2cc(F)c(-c3cccnc3)cc2n1CC1CCN(C2COC2)CC1 [Compound 290, 1-((5-(5-(difluoromethyl)-1,3,4-oxadiazole-2-yl)pyridine-2-yl)methyl)-6-fluoro-3-((1-(oxetan-3-yl)piperidine-4-yl)methyl)-5-(pyridine-3-yl)-1,3-dihydro-2H-benzo[d]imidazole-2-one] | 8.15 | < 5.00
CC(C)N1CCC(n2cc(-c3cc4oc(=O)n(Cc5ccc(-c6nnc(C(F)F)o6)cn5)c4cc3F)cn2)CC1 [Compound 361, 3-((5-(5-(difluoromethyl)-1,3,4-oxadiazole-2-yl)pyridine-2-yl)methyl)-5-fluoro-6-(1-(1-isopropylpiperidine-4-yl)-1H-pyrazole-4-yl)benzo[d]oxazole-2(3H)-one] | 7.64 | < 5.00
O=c1n(Cc2ccc(-c3nnc(C(F)F)o3)cc2F)c2ccccc2n1C1CCOCC1 [Compound 34, 1-(4-(5-(difluoromethyl)-1,3,4-oxadiazole-2-yl)-2-fluorobenzyl)-3-(tetrahydro-2H-pyran-4-yl)-1,3-dihydro-2H-benzo[d]imidazole-2-one] | 6.63 | < 5.00
CS(=O)(=O)N1CCC(n2c(=O)n(Cc3ccc(-c4nnc(C(F)F)o4)cc3)c3cc(F)ccc32)CC1 [Compound 192, 3-(4-(5-(difluoromethyl)-1,3,4-oxadiazole-2-yl)benzyl)-5-fluoro-1-(1-(methylsulfonyl)piperidine-4-yl)-1,3-dihydro-2H-benzo[d]imidazole-2-one] | 7.10 | < 5.00
CN1CCN(c2cc(-c3cc4oc(=O)n(Cc5ccc(-c6nnc(C(F)F)o6)cn5)c4cc3F)ccn2)CC1 [Compound 364, 3-((5-(5-(difluoromethyl)-1,3,4-oxadiazole-2-yl)pyridine-2-yl)methyl)-5-fluoro-6-(2-(4-methylpiperazine-1-yl)pyridine-4-yl)benzo[d]oxazole-2(3H)-one] | 7.59 | < 5.00
CC(C)(C)OC(=O)N1CC=C(c2ccc3c(c2)sc(=O)n3Cc2ccc(-c3nnc(C(F)F)o3)cn2)CC1 [Compound 238, tert-butyl 4-(3-((5-(5-(difluoromethyl)-1,3,4-oxadiazole-2-yl)pyridine-2-yl)methyl)-2-oxo-2,3-dihydrobenzo[d]thiazole-6-yl)-3,6-dihydropyridine-1(2H)-carboxylate] | 6.69 | < 5.00
CN1CC[C@H](n2c(=O)n(Cc3ccc(-c4nnc(C(F)F)o4)cn3)c3cc(F)c(-c4cccnc4)cc32)C1 [Compound 268, (S)-1-((5-(5-(difluoromethyl)-1,3,4-oxadiazole-2-yl)pyridine-2-yl)methyl)-6-fluoro-3-(1-methylpyrrolidine-3-yl)-5-(pyridine-3-yl)-1,3-dihydro-2H-benzo[d]imidazole-2-one] | 7.70 | < 5.00
CCN1CCC(n2c(=O)n(Cc3ccc(-c4nnc(C(F)F)o4)cn3)c3ccc(-c4cccnc4)cc32)CC1 [Compound 281, 1-((5-(5-(difluoromethyl)-1,3,4-oxadiazole-2-yl)pyridine-2-yl)methyl)-3-(1-ethylpiperidine-4-yl)-5-(pyridine-3-yl)-1,3-dihydro-2H-benzo[d]imidazole-2-one] | 7.74 | < 5.00
CN1CCC(n2c(=O)n(Cc3ccc(-c4nnc(C(F)F)o4)cn3)c3cc(F)c(-c4ccc5c(cnn5C(=O)OC(C)(C)C)c4)cc32)CC1 [Compound 255, tert-butyl 5-(1-((5-(5-(difluoromethyl)-1,3,4-oxadiazole-2-yl)pyridine-2-yl)methyl)-6-fluoro-3-(1-methylpiperidine-4-yl)-2-oxo-2,3-dihydro-1H-benzo[d]imidazole-5-yl)-1H-indazole-1-carboxylate] | 7.32 | < 5.00
O=c1n(Cc2ccc(-c3nnc(C(F)F)o3)cc2)c2cc(Cl)c(Cl)cc2n1C1CCN(C2COC2)CC1 [Compound 86, 5,6-dichloro-1-(4-(5-(difluoromethyl)-1,3,4-oxadiazole-2-yl)benzyl)-3-(1-(oxetan-3-yl)piperidine-4-yl)-1,3-dihydro-2H-benzo[d]imidazole-2-one] | 7.55 | < 5.00
CN1CCC(n2c(=O)n(Cc3ccc(-c4nnc(C(F)F)o4)cc3F)c3ccc(Cl)cc32)CC1 [Compound 101, 5-chloro-1-(4-(5-(difluoromethyl)-1,3,4-oxadiazole-2-yl)-2-fluorobenzyl)-3-(1-methylpiperidine-4-yl)-1,3-dihydro-2H-benzo[d]imidazole-2-one] | 7.36 | < 5.00
O=c1n(Cc2ccc(-c3nnc(C(F)F)o3)cn2)c2cc(F)ccc2n1C1CCN(C2CCOCC2)CC1 [Compound 55, 3-((5-(5-(difluoromethyl)-1,3,4-oxadiazole-2-yl)pyridine-2-yl)methyl)-5-fluoro-1-(1-(tetrahydro-2H-pyran-4-yl)piperidine-4-yl)-1,3-dihydro-2H-benzo[d]imidazole-2-one] | 7.41 | < 5.00
